Earlier results in patent US20120142645A1, “NEUROACTIVE STEROID COMPOSITIONS AND METHODS OF USE FOR LOWERING CHOLESTEROL” (priority 2009, published 2012).

Test system: acute moderate to severe traumatic brain injury
Details: intravenous for three days; Wright et al., 2007; cited from earlier work

In the case of `CC(=O)[C@H]1CC[C@H]2[C@@H]3CCC4=CC(=O)CC[C@]4(C)[C@H]3CC[C@]12C` [progesterone], the “Reduction of 30-day mortality rates” value is given as “over 50%”.
